Reference: patent publication US20070264247A1, “Use of Human Lysozyme in Preparation of Medicine for Treating Acne” (priority 2004, published 2007)
Converted amounts (≈) assume the structure as drawn. Read-outs that look alike come from different tables or passages of the source. One block for each compound: values may come before it.

Assays:
Experiment in all cases: MIC by double agar dilution method, clinical isolates
Assay type in all cases: cell-based
Propionibacterium = test system: Propionibacterium
Experimental: (§1) Strain: Pathogenic bacteria isolated from clinical laboratory collected from Sichuan, Beijing, 2002.4˜2003.9, assessed using the method of API in our laboratory.
(§2) Test the minimum inhibitory concentration (MIC) of the tested drug against the strains using the double agar dilution method. The tested drug was dissolved in sterile purified water and diluted properly. The drug-containing petri dishes were prepared by spiking 1 ml drug conclusion with melted 9 ml Tris —HCl agarose solid medium, using agar twofold dilution method and obtained the concentration of 4, 2, 1, 0.5, 0.25, 0.125, 0.06, 0.03 . . . 0.001 mg/ml. The strain solution of 10^5 CFU/ml was inoculated on the petri dishes using the multipoint inoculator, cultured for 8-10 h at 37° C., covered the petri dishes using melted 6 ml M-H Medium (50° C.) respectively, cultured for 10 h at 37° C. The minimal concentration of the drug-containing petri dishes which had no bacterium growth was the minimal inhibitory concentration (MIC).

Serratia marcescens = test system: Serratia marcescens
Experimental: as §1, §2

Klebsiella pneumoniae = test system: Klebsiella pneumoniae
Experimental: as §1, §2

Staphylococcus aureus = test system: Staphylococcus aureus
Experimental: as §1, §2

Escherichia coli = test system: Escherichia coli
Experimental: as §1, §2

[1] = test system: Staphylococcu epidermidis
Experimental: as §1, §2

[2] = Serratia marcescens 2-31-8 (first line)
[3] = Serratia marcescens 2-31-8 (second line)
[4] = Serratia marcescens 2-31-8 (third line)
[5] = Staphylococcus aureus MRSA02-22, read-out: MIC
[6] = Staphylococcus aureus MRSA02-23
[7] = Staphylococcus aureus MRSA02-26
[8] = Staphylococcus aureus MRSA02-28
[9] = Escherichia coli 03-2-41, read-out: MIC
[10] = Escherichia coli 03-2-42, read-out: MIC
[11] = Escherichia coli 03-2-43, read-out: MIC
[12] = Escherichia coli 03-2-45, read-out: MIC
[13] = Escherichia coli 03-2-51, read-out: MIC
[14] = Escherichia coli 03-2-52, read-out: MIC
[15] = Escherichia coli 03-2-53, read-out: MIC
[16] = Escherichia coli 03-2-54, read-out: MIC
[17] = Escherichia coli 03-2-56, read-out: MIC
[18] = Escherichia coli 03-2-57, read-out: MIC
[19] = Escherichia coli 03-2-58, read-out: MIC
[20] = Staphylococcu epidermidis MRSE02-3
[21] = Staphylococcu epidermidis MRSE02-4
[22] = Staphylococcu epidermidis MRSE02-5
[23] = Staphylococcu epidermidis MRSE02-6
[24] = Staphylococcu epidermidis MRSE02-10
[25] = Staphylococcu epidermidis MRSE02-11
[26] = Staphylococcu epidermidis MRSE02-12
[27] = Staphylococcu epidermidis MRSE02-15
[28] = Staphylococcu epidermidis MRSE02-17
[29] = Staphylococcu epidermidis MRSE02-18
[30] = Staphylococcu epidermidis MRSE02-20
[31] = Staphylococcu epidermidis MRSE02-20-1
[32] = Staphylococcu epidermidis MRSE02-20-2
[33] = Staphylococcu epidermidis MRSE02-20-3
[34] = Staphylococcu epidermidis MRSE02-20-4
[35] = Staphylococcu epidermidis MRSE02-20-5
[36] = Staphylococcu epidermidis MRSE02-20-6
[37] = Staphylococcu epidermidis MRSE02-20-7
[38] = Staphylococcu epidermidis MRSE02-20-8
[39] = Staphylococcu epidermidis MRSE02-20-9
[40] = Staphylococcu epidermidis MRSE02-21
[41] = Staphylococcu epidermidis MRSE02-22
[42] = Staphylococcu epidermidis MRSE02-29
[43] = Staphylococcu epidermidis MssE25

SMILES: CC[C@H]1OC(=O)[C@H](C)[C@@H](O[C@H]2C[C@@](C)(OC)[C@@H](O)[C@H](C)O2)[C@H](C)[C@@H](O[C@@H]2O[C@H](C)C[C@H](N(C)C)[C@H]2O)[C@](C)(OC)C[C@@H](C)C(=O)[C@H](C)[C@@H](O)[C@]1(C)O [CLA, Clarithromycin]
- MIC (Propionibacterium; Propionibacterium 02-7-4): 2 µg/mL (≈ 2.67 µM)
- MIC (Propionibacterium; Propionibacterium 02-7-5): < 1 µg/mL
- MIC (Propionibacterium; Propionibacterium 02-7-6): 8 µg/mL (≈ 10.7 µM)
- MIC (Propionibacterium; Propionibacterium 02-7-7): 32 µg/mL (≈ 42.8 µM)
- MIC (Propionibacterium; Propionibacterium 02-7-9): 8 µg/mL (≈ 10.7 µM)
- MIC (Propionibacterium; Propionibacterium 03-2-22): 1000 µg/mL (≈ 1340 µM)
- MIC (Propionibacterium; Propionibacterium 03-2-30): > 1000 µg/mL
- MIC (Propionibacterium; Propionibacterium 03-2-32): 8 µg/mL (≈ 10.7 µM)
- MIC (Propionibacterium; Propionibacterium 03-2-33): > 1000 µg/mL
- MIC (Propionibacterium; Propionibacterium 03-2-36): 250 µg/mL (≈ 334 µM)
- MIC (Propionibacterium; Propionibacterium 03-2-37): > 1000 µg/mL
- MIC (Propionibacterium; Propionibacterium 03-2-39): 500 µg/mL (≈ 668 µM)
- MIC (Serratia marcescens; [2]): 8 µg/mL (≈ 10.7 µM)
- MIC (Serratia marcescens; [3]): 8 µg/mL (≈ 10.7 µM)
- MIC (Serratia marcescens; [4]): 16 µg/mL (≈ 21.4 µM)
- MIC (Klebsiella pneumoniae; Klebsiella pneumoniae 02-6-14): 63 µg/mL (≈ 84.2 µM)
- MIC (Klebsiella pneumoniae; Klebsiella pneumoniae 02-6-18): 500 µg/mL (≈ 668 µM)
- MIC (Staphylococcus aureus; Staphylococcus aureus 02-19-5): >1000 µg/mL
- MIC (Staphylococcus aureus; [5]): > 1000 µg/mL
- MIC (Staphylococcus aureus; [6]): >1000 µg/mL
- MIC (Staphylococcus aureus; [7]): >1000 µg/mL
- MIC (Staphylococcus aureus; [8]): >1000 µg/mL
- MIC (Escherichia coli): 125 µg/mL (≈ 167 µM)
- MIC (Escherichia coli; [9]): > 1000 µg/mL
- MIC (Escherichia coli; [10]): 63 µg/mL (≈ 84.2 µM)
- MIC (Escherichia coli; [11]): 16 µg/mL (≈ 21.4 µM)
- MIC (Escherichia coli; [12]): 250 µg/mL (≈ 334 µM)
- MIC (Escherichia coli; [13]): > 1000 µg/mL
- MIC (Escherichia coli; [14]): > 1000 µg/mL
- MIC (Escherichia coli; [15]): 30 µg/mL (≈ 40.1 µM)
- MIC (Escherichia coli; [16]): > 1000 µg/mL
- MIC (Escherichia coli; [17]): 16 µg/mL (≈ 21.4 µM)
- MIC (Escherichia coli; [18]): 32 µg/mL (≈ 42.8 µM)
- MIC (Escherichia coli; [19]): > 1000 µg/mL
- MIC [1, 20]: > 1000 µg/mL
- MIC [1, 21]: 500 µg/mL (≈ 668 µM)
- MIC [1, 22]: < 1 µg/mL
- MIC [1, 23]: < 1 µg/mL
- MIC [1, 24]: 1000 µg/mL (≈ 1340 µM)
- MIC [1, 25]: < 1 µg/mL
- MIC [1, 26]: 8 µg/mL (≈ 10.7 µM)
- MIC [1, 27]: 1000 µg/mL (≈ 1340 µM)
- MIC [1, 28]: 250 µg/mL (≈ 334 µM)
- MIC [1, 29]: < 1 µg/mL
- MIC [1, 30]: > 1000 µg/mL
- MIC [1, 31]: < 1 µg/mL
- MIC [1, 32]: > 1000 µg/mL
- MIC [1, 33]: > 1000 µg/mL
- MIC [1, 34]: > 1000 µg/mL
- MIC [1, 35]: > 1000 µg/mL
- MIC [1, 36]: > 1000 µg/mL
- MIC [1, 37]: 1000 µg/mL (≈ 1340 µM)
- MIC [1, 38]: < 1 µg/mL
- MIC [1, 39]: < 1 µg/mL
- MIC [1, 40]: < 1 µg/mL
- MIC [1, 41]: < 1 µg/mL
- MIC [1, 42]: 30 µg/mL (≈ 40.1 µM)
- MIC [1, 43]: < 1 µg/mL

- MIC (Propionibacterium; Propionibacterium 02-7-4): 2 µg/mL (≈ 2.39 µM)
- MIC (Propionibacterium; Propionibacterium 02-7-5): < 1 µg/mL
- MIC (Propionibacterium; Propionibacterium 02-7-6): 250 µg/mL (≈ 299 µM)
- MIC (Propionibacterium; Propionibacterium 02-7-7): 250 µg/mL (≈ 299 µM)
- MIC (Propionibacterium; Propionibacterium 02-7-9): 16 µg/mL (≈ 19.1 µM)
- MIC (Propionibacterium; Propionibacterium 03-2-22): 1000 µg/mL (≈ 1190 µM)
- MIC (Propionibacterium; Propionibacterium 03-2-30): > 1000 µg/mL
- MIC (Propionibacterium; Propionibacterium 03-2-32): 500 µg/mL (≈ 597 µM)
- MIC (Propionibacterium; Propionibacterium 03-2-33): > 1000 µg/mL
- MIC (Propionibacterium; Propionibacterium 03-2-36): 500 µg/mL (≈ 597 µM)
- MIC (Propionibacterium; Propionibacterium 03-2-37): 1000 µg/mL (≈ 1190 µM)
- MIC (Propionibacterium; Propionibacterium 03-2-39): 1000 µg/mL (≈ 1190 µM)
- MIC (Serratia marcescens; [2]): 16 µg/mL (≈ 19.1 µM)
- MIC (Serratia marcescens; [3]): 16 µg/mL (≈ 19.1 µM)
- MIC (Serratia marcescens; [4]): 16 µg/mL (≈ 19.1 µM)
- MIC (Klebsiella pneumoniae; Klebsiella pneumoniae 02-6-14): > 1000 µg/mL
- MIC (Klebsiella pneumoniae; Klebsiella pneumoniae 02-6-18): 1000 µg/mL (≈ 1190 µM)
- MIC (Staphylococcus aureus; Staphylococcus aureus 02-19-5): >1000 µg/mL
- MIC (Staphylococcus aureus; [5]): > 1000 µg/mL
- MIC (Staphylococcus aureus; [6]): >1000 µg/mL
- MIC (Staphylococcus aureus; [7]): >1000 µg/mL
- MIC (Staphylococcus aureus; [8]): >1000 µg/mL
- MIC (Escherichia coli; [9]): > 1000 µg/mL
- MIC (Escherichia coli; [10]): > 1000 µg/mL
- MIC (Escherichia coli; [11]): 250 µg/mL (≈ 299 µM)
- MIC (Escherichia coli; [12]): 500 µg/mL (≈ 597 µM)
- MIC (Escherichia coli; [13]): > 1000 µg/mL
- MIC (Escherichia coli; [14]): 250 µg/mL (≈ 299 µM)
- MIC (Escherichia coli; [15]): 250 µg/mL (≈ 299 µM)
- MIC (Escherichia coli; [16]): 1000 µg/mL (≈ 1190 µM)
- MIC (Escherichia coli; [17]): 250 µg/mL (≈ 299 µM)
- MIC (Escherichia coli; [18]): 250 µg/mL (≈ 299 µM)
- MIC (Escherichia coli; [19]): 500 µg/mL (≈ 597 µM)
- MIC (Escherichia coli; Escherichia coli 03-2-59, read-out: MIC): 250 µg/mL (≈ 299 µM)
- MIC [1, 20]: > 1000 µg/mL
- MIC [1, 21]: > 1000 µg/mL
- MIC [1, 22]: < 1 µg/mL
- MIC [1, 23]: < 1 µg/mL
- MIC [1, 24]: 1000 µg/mL (≈ 1190 µM)
- MIC [1, 25]: < 1 µg/mL
- MIC [1, 26]: 125 µg/mL (≈ 149 µM)
- MIC [1, 27]: > 1000 µg/mL
- MIC [1, 28]: > 1000 µg/mL
- MIC [1, 29]: < 1 µg/mL
- MIC [1, 30]: > 1000 µg/mL
- MIC [1, 31]: < 1 µg/mL
- MIC [1, 32]: > 1000 µg/mL
- MIC [1, 33]: > 1000 µg/mL
- MIC [1, 34]: > 1000 µg/mL
- MIC [1, 35]: > 1000 µg/mL
- MIC [1, 36]: > 1000 µg/mL
- MIC [1, 37]: 1000 µg/mL (≈ 1190 µM)
- MIC [1, 38]: < 1 µg/mL
- MIC [1, 39]: < 1 µg/mL
- MIC [1, 40]: < 1 µg/mL
- MIC [1, 41]: < 1 µg/mL
- MIC [1, 42]: 500 µg/mL (≈ 597 µM)
- MIC [1, 43]: < 1 µg/mL
SMILES: CC[C@H]1OC(=O)[C@H](C)[C@@H](O[C@H]2C[C@@](C)(OC)[C@@H](O)[C@H](C)O2)[C@H](C)[C@@H](O[C@@H]2O[C@H](C)C[C@H](N(C)C)[C@H]2O)[C@](C)(O)C[C@@H](C)/C(=N\OCOCCOC)[C@H](C)[C@@H](O)[C@]1(C)O [ROX, Roxithromycin]
